Reference: US4098995A, “Polygalactosido-sucrose Poly(H-)sulfate salts” (American Cyanamid Company, priority 1976, dated 1978)
Several values for one entry are separate records, joined by “and”; a condition that tells them apart may be missing. Equal entries are not always repeated. Structures can show the parent of a compound that is named as a salt.

Tests used:
[1] = tested on: late components of human complement (C3-C9); assay: Test, Code 035 (C3-C9 inhibitor), lysis of EAC 142 by late complement components; format: cell-based; conditions: serial two-fold dilution assay; higher well number indicates higher activity
Source text: (§1) An active inhibitor protects C2 from C1 and C4; (ii) Test, Code 035 (C3-C9 inhibitor) - This test determines the ability of the late components of human complement (C3-C9) to lyse EAC 142 in the presence of appropriate dilutions of the test compound. An active inhibitor protects EAC 142 from lysis by human C3-C9; (iii) Test, Code 036 (C-Shunt inhibitor) -- In this test human erythrocytes rendered fragile are lysed in autologous serum via the shunt pathway activated by cobra venom factor in the presence of appropriate dilutions of the test compound. Inhibition of the shunt pathway results in failure of lysis; (iv) Forssman Vasculitis Test -- Here, the well known complement dependent lesion, Forssman vasculitis, is produced in guinea pigs by intradermal injection of rabbit anti-Forssman antiserum. The lesion is measured in terms of diameter, edema and hemorrhage and the extent to which a combined index of these is inhibited by prior intraperitoneal injection of the test compound at 200 mg/kg is then reported, unless otherwise stated; (v) Forssman Shock Test -- Lethal shock is produced in guinea pigs by an i.v. injection of anti-Forssman antiserum and the harmonic mean death time of treated guinea pigs is compared with that of simultaneous controls; (vi) Complement Level Reduction Test -- In this test, the above dosed guinea pigs, or others, are bled for serum and the complement level is determined in undiluted serum by the capillary tube method of U.S. Pat. No. 3,876,376 and compared to undosed control guinea pigs; and (vii) Cap 50 Test -- Here, appropriate amounts of the test compound are added to a pool of guinea pig serum in vitro, after which the undiluted serum capillary tube assay referred to above is run. The concentration of compound inhibiting 50% is reported.
(§2) **Activity in wells, a serial dilution assay. Higher well numer indicates
(§3) higher activity. The serial dilutions are two-fold.

shunt pathway = assay: Test, Code 036 (C-Shunt inhibitor), lysis of fragile human erythrocytes via shunt pathway activated by cobra venom factor; format: cell-based; conditions: serial two-fold dilution assay, higher well number indicates higher activity
Source text: as §1, §2, §3

activated human C1 = activated human C1 (Homo sapiens, UniProt P09871); assay: Test, Code 026 (C1 inhibitor); format: biochemical; conditions: serial two-fold dilution assay, higher well number indicates higher activity
Source text: as §1, §2, §3

[2] = literature; cited from earlier work
complement [3] = assay: Complement inhibiting activity, tests disclosed herein
complement [4] = conditions: literature; cited from earlier work
whole complement = assay: Complement Level Reduction Test in dosed guinea pigs (serum whole complement, capillary tube assay); format: in vivo, guinea pig; conditions: 200 mg/kg

O=S(=O)(O)OC[C@H]1O[C@H](OC[C@H]2O[C@H](O[C@]3(COS(=O)(=O)O)O[C@H](COS(=O)(=O)O)[C@@H](OS(=O)(=O)O)[C@@H]3OS(=O)(=O)O)[C@H](OS(=O)(=O)O)[C@@H](OS(=O)(=O)O)[C@@H]2OS(=O)(=O)O)[C@H](OS(=O)(=O)O)[C@@H](OS(=O)(=O)O)[C@H]1OS(=O)(=O)O [Raffinose Poly(H-)sulfate Triethylamine Salt]
In Vitro Activity 035 [1]: N
In Vitro Activity 036 (shunt pathway): N
In Vitro Activity 026 (activity in wells) (activated human C1): 10 wells and 9 wells

O=S(=O)(O)OC[C@H]1O[C@H](OC[C@H]2O[C@H](OC[C@H]3O[C@H](O[C@]4(COS(=O)(=O)O)O[C@H](COS(=O)(=O)O)[C@@H](OS(=O)(=O)O)[C@@H]4OS(=O)(=O)O)[C@H](OS(=O)(=O)O)[C@@H](OS(=O)(=O)O)[C@@H]3OS(=O)(=O)O)[C@H](OS(=O)(=O)O)[C@@H](OS(=O)(=O)O)[C@H]2OS(=O)(=O)O)[C@H](OS(=O)(=O)O)[C@@H](OS(=O)(=O)O)[C@H]1OS(=O)(=O)O [Stachyose Poly(H--)sulfate Trimethylamine Salt] [Stachyose Poly(H-)sulfate Trimethylamine Salt]
In Vitro Activity 035 [1]: N
In Vitro Activity 026 (activity in wells) (activated human C1): 11 wells and 12 wells

NCCCCCC(=O)O [epsilon-aminocaproic acid]
treatment of hereditary angioneurotic edema [2]: used with success

O=S(=O)(O)OC[C@H]1O[C@H](OC[C@H]2O[C@H](OC[C@H]3O[C@H](O[C@]4(COS(=O)(=O)O)O[C@H](COS(=O)(=O)O)[C@@H](OS(=O)(=O)O)[C@@H]4OS(=O)(=O)O)[C@H](OS(=O)(=O)O)[C@@H](OS(=O)(=O)O)[C@@H]3OS(=O)(=O)O)[C@H](OS(=O)(=O)O)[C@@H](OS(=O)(=O)O)[C@H]2OS(=O)(=O)O)[C@H](OS(=O)(=O)O)[C@@H](OS(=O)(=O)O)[C@H]1OS(=O)(=O)O [Stachyose Poly(H--)sulfate Triethylamine Salt] [Stachyose Poly(H-)sulfate Triethylamine Salt]
In Vitro Activity 035 [1]: N
In Vitro Activity 036 (shunt pathway): 2 wells
In Vitro Activity 026 (activity in wells) (activated human C1): 14 wells

Stachyose trisulfate
complement inhibiting activity (complement [3]): found lacking in complement inhibiting activity

pentosan polysulfo ester
complement inhibiting activity (reported) (complement [4]): reported as having complement inhibiting activity

O=S(=O)(O)OC[C@H]1O[C@H](OC[C@H]2O[C@H](OC[C@H]3O[C@H](O[C@]4(COS(=O)(=O)O)O[C@H](COS(=O)(=O)O)[C@@H](OS(=O)(=O)O)[C@@H]4OS(=O)(=O)O)[C@H](OS(=O)(=O)O)[C@@H](OS(=O)(=O)O)[C@@H]3OS(=O)(=O)O)[C@H](OS(=O)(=O)O)[C@@H](OS(=O)(=O)O)[C@H]2OS(=O)(=O)O)[C@H](OS(=O)(=O)O)[C@@H](OS(=O)(=O)O)[C@H]1OS(=O)(=O)O [Stachyose Poly(H--)sulfate Sodium Salt, Stachyose Poly(H-)sulfate Sodium Salt]
In Vivo Activity (Guinea Pig) Percent Inhibition (whole complement; intraperitoneal, Time (Hours) 30): -47%
In Vivo Activity (Guinea Pig) Percent Inhibition (whole complement; intraperitoneal, Time (Hours) 60): -56%
In Vivo Activity (Guinea Pig) Percent Inhibition (whole complement; intraperitoneal, Time (Hours) 120): -65%
In Vivo Activity (Guinea Pig) Percent Inhibition (whole complement; intravenous, Time (Hours) 2): -86%
In Vivo Activity (Guinea Pig) Percent Inhibition (whole complement; intravenous, Time (Hours) 30): -93%
In Vivo Activity (Guinea Pig) Percent Inhibition (whole complement; intravenous, Time (Hours) 120): -17%
In Vitro Activity 035 [1]: N
In Vitro Activity 036 (shunt pathway; Sodium Salt): 4 wells and 2 wells
In Vitro Activity 026 (activity in wells) (activated human C1; Sodium Salt): 13 wells and 11 wells

heparin
complement inhibiting activity (reported) (complement [4]): reported as having complement inhibiting activity

O=S(=O)(O)OC[C@H]1O[C@H](OC[C@H]2O[C@H](O[C@]3(COS(=O)(=O)O)O[C@H](COS(=O)(=O)O)[C@@H](OS(=O)(=O)O)[C@@H]3OS(=O)(=O)O)[C@H](OS(=O)(=O)O)[C@@H](OS(=O)(=O)O)[C@@H]2OS(=O)(=O)O)[C@H](OS(=O)(=O)O)[C@@H](OS(=O)(=O)O)[C@H]1OS(=O)(=O)O [Raffinose Poly(H--)sulfate Sodium Salt, Raffinose Poly(H-)sulfate Sodium Salt]
In Vitro Activity 036 (shunt pathway; Sodium Salt): 1 wells
In Vitro Activity 026 (activity in wells) (activated human C1; Sodium Salt): 9 wells

NC[C@H]1CC[C@H](C(=O)O)CC1 [tranexamic acid]
treatment of hereditary angioneurotic edema [2]: used with success
